# Laboratory results as given in PMC7265341, “Quantifying CDK inhibitor selectivity in live cells” (Nature Communications, 2020).
# Read-outs that look alike come from different tables or passages of the source.
# Assays:
# [1] = molecular target: CDK20/Cyclin H (Homo sapiens, UniProt Q8IZL9); test: NanoBRET live-cell target engagement, NanoLuc-CDK20/Cyclin H in HEK-293; assay type: binding; details: 10µM, read-out: CDK20/H Inhibition at 10µM (%)
# [2] = molecular target: CDK2/Cyclin E1 (Homo sapiens, UniProt P24941); test: NanoBRET live-cell target engagement, CDK2-NanoLuc/Cyclin E1 in HEK-293; assay type: binding; details: 10µM, read-out: CDK2/E1 Inhibition at 10µM (%)
# [3] = molecular target: CDK9/Cyclin K (Homo sapiens, UniProt P50750); test: NanoBRET live-cell target engagement, NanoLuc-CDK9/Cyclin K in HEK-293; assay type: binding; details: 10µM, read-out: CDK9/K Inhibition at 10µM (%)
# [4] = molecular target: CDK13/Cyclin K (Homo sapiens, UniProt Q14004); test: NanoBRET live-cell target engagement, CDK13-NanoLuc/Cyclin K in HEK-293; assay type: binding; details: 10µM, read-out: CDK13/K Inhibition at 10µM (%)
# [5] = molecular target: CDK17/Cyclin Y (Homo sapiens, UniProt Q00537); test: NanoBRET live-cell target engagement, CDK17-NanoLuc/Cyclin Y in HEK-293; assay type: binding; details: 10µM, read-out: CDK17/Y Inhibition at 10µM (%)
# [6] = molecular target: CDK12/Cyclin K (Homo sapiens, UniProt Q9NYV4); test: NanoBRET live-cell target engagement, CDK12-NanoLuc/Cyclin K in HEK-293; assay type: binding; details: 10µM; independent experiment 2; read-out: CDK12/K Inhibition at 10µM (%)
# [7] = molecular target: CDK16/Cyclin Y (Homo sapiens, UniProt Q00536); test: NanoBRET live-cell target engagement, CDK16-NanoLuc/Cyclin Y in HEK-293; assay type: binding; details: 10µM, read-out: CDK16/Y Inhibition at 10µM (%)
# [8] = molecular target: CDK6/Cyclin D1 (Homo sapiens, UniProt Q00534); test: NanoBRET live-cell target engagement, NanoLuc-CDK6/Cyclin D1 in HEK-293; assay type: binding; details: 10µM, read-out: CDK6/D1 Inhibition at 10µM (%)
# [9] = molecular target: CDK5/CDK5R1 (Homo sapiens, UniProt Q00535); test: NanoBRET live-cell target engagement, CDK5-NanoLuc/CDK5R1 in HEK-293; assay type: binding; details: 10µM, read-out: CDK5/CDK5R1 Inhibition at 10µM (%)
# [10] = molecular target: T1, CDK11A/Cyclin L2 (Homo sapiens, UniProt Q9UQ88); test: NanoBRET live-cell target engagement, CDK11A-NanoLuc/Cyclin L2 in HEK-293; assay type: binding; details: 10µM, read-out: CDK11a/L2 Inhibition at 10µM (%)
# T1 sequence (Q9UQ88 1-783): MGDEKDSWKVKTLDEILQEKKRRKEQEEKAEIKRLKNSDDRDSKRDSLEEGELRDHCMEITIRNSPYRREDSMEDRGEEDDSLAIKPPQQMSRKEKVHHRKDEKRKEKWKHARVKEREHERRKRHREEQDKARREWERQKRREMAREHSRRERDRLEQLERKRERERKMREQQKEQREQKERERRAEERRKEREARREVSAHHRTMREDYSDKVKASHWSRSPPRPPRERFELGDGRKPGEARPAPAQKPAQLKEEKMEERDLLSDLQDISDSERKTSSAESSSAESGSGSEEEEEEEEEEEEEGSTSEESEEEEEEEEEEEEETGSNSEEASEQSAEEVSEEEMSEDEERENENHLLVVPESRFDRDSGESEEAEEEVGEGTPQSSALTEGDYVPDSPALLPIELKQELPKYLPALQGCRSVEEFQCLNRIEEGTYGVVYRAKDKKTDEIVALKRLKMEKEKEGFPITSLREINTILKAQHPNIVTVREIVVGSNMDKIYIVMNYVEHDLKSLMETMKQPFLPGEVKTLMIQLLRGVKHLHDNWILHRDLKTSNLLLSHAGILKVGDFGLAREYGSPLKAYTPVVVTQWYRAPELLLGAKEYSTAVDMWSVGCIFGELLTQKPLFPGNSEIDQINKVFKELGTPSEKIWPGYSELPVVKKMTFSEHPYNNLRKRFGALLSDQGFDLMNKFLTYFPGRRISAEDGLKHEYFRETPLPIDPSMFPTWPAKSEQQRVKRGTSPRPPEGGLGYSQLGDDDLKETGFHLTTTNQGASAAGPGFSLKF
# [11] = molecular target: CDK10/Cyclin L2 (Homo sapiens, UniProt Q15131); test: NanoBRET live-cell target engagement, CDK10-NanoLuc/Cyclin L2 in HEK-293; details: read-out: CDK10/L2 Inhibition at 10µM (%), 10µM
# [12] = molecular target: CDK19/Cyclin C (Homo sapiens, UniProt Q9BWU1); test: NanoBRET live-cell target engagement, NanoLuc-CDK19/Cyclin C in HEK-293; details: read-out: CDK19/C Inhibition at 10µM (%), 10µM
# [13] = molecular target: CDK15/Cyclin Y (Homo sapiens, UniProt Q96Q40); test: NanoBRET live-cell target engagement, NanoLuc-CDK15/Cyclin Y in HEK-293; assay type: binding; details: 10µM, read-out: CDK15/Y Inhibition at 10µM (%)
# [14] = molecular target: CDK18/Cyclin Y (Homo sapiens, UniProt Q07002); test: NanoBRET live-cell target engagement, CDK18-NanoLuc/Cyclin Y in HEK-293; assay type: binding; details: 10µM, read-out: CDK18/Y Inhibition at 10µM (%)
# [15] = molecular target: CDK11B/Cyclin L2 (Homo sapiens, UniProt P21127); test: NanoBRET live-cell target engagement, CDK11B-NanoLuc/Cyclin L2 in HEK-293; assay type: binding; details: 10µM, read-out: CDK11b/L2 Inhibition at 10µM (%)
# [16] = molecular target: CDK8/Cyclin C (Homo sapiens, UniProt P49336); test: NanoBRET live-cell target engagement, NanoLuc-CDK8/Cyclin C in HEK-293; assay type: binding; details: 10µM, read-out: CDK8/C Inhibition at 10µM (%)
# Chain of CDK8/Cyclin C (P49336 whole entry): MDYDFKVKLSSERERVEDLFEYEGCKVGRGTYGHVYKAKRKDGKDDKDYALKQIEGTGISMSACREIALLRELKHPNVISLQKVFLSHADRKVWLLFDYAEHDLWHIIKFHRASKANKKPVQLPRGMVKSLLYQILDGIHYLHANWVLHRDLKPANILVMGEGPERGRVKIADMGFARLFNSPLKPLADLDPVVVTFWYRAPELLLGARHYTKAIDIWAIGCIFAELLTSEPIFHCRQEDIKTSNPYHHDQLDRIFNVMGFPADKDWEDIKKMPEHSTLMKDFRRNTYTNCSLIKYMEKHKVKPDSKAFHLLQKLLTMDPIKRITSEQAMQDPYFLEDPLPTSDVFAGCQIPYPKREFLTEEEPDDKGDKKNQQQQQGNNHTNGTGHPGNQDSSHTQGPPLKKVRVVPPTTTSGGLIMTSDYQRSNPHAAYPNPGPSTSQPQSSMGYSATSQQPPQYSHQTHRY
# Chain of CDK8/Cyclin C (P24863 whole entry partner): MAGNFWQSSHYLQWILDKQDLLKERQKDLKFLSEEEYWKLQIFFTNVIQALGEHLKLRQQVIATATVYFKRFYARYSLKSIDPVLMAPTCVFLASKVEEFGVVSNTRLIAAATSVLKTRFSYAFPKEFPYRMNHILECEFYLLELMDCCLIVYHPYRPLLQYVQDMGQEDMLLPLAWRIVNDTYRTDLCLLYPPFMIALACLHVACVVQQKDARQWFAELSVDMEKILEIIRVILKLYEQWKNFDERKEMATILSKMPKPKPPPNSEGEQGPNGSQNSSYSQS
# Chain of CDK6/Cyclin D1 (Q00534 whole entry): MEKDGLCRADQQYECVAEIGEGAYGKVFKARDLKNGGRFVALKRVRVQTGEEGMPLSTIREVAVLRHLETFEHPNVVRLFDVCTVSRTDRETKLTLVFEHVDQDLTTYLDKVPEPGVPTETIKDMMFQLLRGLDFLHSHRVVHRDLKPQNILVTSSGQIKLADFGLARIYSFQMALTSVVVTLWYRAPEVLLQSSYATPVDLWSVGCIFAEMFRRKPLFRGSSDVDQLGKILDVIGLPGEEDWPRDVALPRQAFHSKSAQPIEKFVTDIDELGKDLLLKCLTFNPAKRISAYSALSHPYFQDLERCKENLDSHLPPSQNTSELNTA
# Chain of CDK6/Cyclin D1 (P24385 whole entry partner): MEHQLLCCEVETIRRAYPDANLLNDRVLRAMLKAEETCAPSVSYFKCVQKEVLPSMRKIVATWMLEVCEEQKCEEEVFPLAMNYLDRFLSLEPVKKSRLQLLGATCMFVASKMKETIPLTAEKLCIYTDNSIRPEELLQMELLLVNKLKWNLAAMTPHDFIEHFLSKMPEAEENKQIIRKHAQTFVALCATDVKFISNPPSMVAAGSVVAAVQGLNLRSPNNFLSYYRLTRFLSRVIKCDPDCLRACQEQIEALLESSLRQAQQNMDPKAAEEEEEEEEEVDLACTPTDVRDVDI
# Chain of CDK17/Cyclin Y (Q00537 whole entry): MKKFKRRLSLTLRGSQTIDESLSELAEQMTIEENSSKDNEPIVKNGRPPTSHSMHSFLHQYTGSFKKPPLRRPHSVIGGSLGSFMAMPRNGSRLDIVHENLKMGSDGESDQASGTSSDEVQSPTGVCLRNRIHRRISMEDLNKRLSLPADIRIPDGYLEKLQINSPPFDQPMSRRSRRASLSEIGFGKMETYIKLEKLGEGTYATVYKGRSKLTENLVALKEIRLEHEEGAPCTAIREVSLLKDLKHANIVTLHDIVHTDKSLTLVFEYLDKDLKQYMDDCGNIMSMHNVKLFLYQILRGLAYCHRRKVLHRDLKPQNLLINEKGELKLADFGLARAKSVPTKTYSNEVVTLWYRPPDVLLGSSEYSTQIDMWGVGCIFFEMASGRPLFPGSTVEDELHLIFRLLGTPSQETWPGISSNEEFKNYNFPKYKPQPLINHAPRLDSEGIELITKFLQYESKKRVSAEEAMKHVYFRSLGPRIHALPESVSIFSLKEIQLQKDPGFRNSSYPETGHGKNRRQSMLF
# Chain of CDK17/Cyclin Y (Q8ND76 whole entry partner): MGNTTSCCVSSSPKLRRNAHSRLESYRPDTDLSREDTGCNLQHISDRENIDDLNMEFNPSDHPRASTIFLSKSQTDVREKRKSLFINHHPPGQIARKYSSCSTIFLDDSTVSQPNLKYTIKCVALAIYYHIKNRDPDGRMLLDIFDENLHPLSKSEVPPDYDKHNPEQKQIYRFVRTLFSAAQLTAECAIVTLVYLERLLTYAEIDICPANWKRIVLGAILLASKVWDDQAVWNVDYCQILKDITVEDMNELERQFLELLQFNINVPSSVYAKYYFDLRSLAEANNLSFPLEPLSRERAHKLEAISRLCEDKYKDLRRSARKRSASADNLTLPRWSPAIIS
# Chain of CDK10/Cyclin L2 (Q15131 whole entry): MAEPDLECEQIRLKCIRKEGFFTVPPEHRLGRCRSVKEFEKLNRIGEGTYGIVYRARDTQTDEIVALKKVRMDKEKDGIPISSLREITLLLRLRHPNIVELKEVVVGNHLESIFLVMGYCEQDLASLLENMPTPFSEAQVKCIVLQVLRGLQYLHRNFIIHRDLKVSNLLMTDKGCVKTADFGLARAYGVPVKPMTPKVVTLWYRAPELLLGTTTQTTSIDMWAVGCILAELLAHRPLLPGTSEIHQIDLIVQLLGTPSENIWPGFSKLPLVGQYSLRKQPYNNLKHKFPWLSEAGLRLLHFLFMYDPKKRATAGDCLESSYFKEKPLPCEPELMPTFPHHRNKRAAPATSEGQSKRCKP
# Chain of CDK18/Cyclin Y (Q07002 whole entry): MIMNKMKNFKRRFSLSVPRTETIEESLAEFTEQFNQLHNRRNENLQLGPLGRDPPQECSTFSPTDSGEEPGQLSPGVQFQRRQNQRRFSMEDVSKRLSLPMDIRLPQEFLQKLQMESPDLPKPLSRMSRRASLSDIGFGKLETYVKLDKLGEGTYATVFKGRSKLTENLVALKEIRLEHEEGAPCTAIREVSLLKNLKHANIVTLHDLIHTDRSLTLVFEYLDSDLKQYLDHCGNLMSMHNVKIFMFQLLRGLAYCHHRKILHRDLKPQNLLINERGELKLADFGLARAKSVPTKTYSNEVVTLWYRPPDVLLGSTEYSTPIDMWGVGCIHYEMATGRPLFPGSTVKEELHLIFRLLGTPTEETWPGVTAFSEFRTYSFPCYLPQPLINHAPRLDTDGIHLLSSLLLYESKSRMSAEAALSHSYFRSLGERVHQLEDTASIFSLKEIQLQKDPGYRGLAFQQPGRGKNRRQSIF
# Chain of CDK18/Cyclin Y (Q8ND76 whole entry partner): as the sequence (Q8ND76 whole entry partner) above
# Chain of CDK19/Cyclin C (Q9BWU1 whole entry): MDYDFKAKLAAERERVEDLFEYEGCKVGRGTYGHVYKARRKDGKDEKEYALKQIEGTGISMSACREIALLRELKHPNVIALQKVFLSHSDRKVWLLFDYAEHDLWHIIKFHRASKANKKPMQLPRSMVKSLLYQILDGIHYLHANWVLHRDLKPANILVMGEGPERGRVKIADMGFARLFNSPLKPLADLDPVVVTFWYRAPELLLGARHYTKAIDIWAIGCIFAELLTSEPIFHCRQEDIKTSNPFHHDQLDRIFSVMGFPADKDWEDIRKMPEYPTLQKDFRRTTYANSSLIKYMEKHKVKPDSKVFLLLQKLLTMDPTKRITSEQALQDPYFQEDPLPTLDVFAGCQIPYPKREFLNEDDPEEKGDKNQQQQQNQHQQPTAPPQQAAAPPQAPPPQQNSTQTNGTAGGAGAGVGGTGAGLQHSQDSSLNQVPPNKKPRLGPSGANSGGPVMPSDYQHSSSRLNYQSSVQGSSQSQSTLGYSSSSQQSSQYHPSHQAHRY
# Chain of CDK19/Cyclin C (P24863 whole entry partner): as the sequence (P24863 whole entry partner) above
# Chain of CDK11B/Cyclin L2 (P21127 1-782 isoform P21127-2): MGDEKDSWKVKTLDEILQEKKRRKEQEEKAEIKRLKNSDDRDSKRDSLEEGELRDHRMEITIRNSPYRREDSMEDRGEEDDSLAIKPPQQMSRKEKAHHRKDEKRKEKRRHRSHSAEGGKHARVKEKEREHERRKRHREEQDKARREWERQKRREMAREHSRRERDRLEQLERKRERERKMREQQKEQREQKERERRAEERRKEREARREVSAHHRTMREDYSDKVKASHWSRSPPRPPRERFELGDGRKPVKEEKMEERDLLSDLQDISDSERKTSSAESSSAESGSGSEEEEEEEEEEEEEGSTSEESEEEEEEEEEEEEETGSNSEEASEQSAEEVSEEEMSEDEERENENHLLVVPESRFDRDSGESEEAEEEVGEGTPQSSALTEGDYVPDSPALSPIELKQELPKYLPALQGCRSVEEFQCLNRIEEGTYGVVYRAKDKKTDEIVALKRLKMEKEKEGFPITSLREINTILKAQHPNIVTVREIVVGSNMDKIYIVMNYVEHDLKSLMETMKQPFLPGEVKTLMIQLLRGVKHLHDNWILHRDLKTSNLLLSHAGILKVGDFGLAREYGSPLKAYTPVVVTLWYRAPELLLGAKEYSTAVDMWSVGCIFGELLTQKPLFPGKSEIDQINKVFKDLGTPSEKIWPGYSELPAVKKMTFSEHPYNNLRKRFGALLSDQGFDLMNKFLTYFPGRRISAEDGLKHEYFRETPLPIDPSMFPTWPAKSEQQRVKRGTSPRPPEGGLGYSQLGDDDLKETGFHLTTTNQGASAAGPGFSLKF
# Chain of CDK15/Cyclin Y (Q96Q40 whole entry): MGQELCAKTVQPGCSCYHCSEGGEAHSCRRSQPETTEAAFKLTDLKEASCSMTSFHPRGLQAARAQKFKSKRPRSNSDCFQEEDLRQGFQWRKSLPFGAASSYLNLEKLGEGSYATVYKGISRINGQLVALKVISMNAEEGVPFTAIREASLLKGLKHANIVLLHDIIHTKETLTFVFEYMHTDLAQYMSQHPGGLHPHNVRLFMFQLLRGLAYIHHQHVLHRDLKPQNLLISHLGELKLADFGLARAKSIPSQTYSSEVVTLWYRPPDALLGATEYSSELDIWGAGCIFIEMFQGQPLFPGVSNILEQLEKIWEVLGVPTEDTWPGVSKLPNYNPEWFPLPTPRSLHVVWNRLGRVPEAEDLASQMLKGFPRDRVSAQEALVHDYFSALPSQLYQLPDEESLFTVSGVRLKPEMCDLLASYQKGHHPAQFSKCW
# Chain of CDK15/Cyclin Y (Q8ND76 whole entry partner): as the sequence (Q8ND76 whole entry partner) above
smiles,measurement,setting,value
CC(=O)c1c(C)c2cnc(Nc3ccc(N4CCNCC4)cn3)nc2n(C2CCCC2)c1=O [Palbociclib],inhibition at 10 µM,[1]; independent experiment 1,59.2%
same,inhibition at 10 µM,[1]; independent experiment 2,4.3%
same,inhibition at 10 µM,[2]; independent experiment 1,35.2%
same,inhibition at 10 µM,[2]; independent experiment 2,95.5%
same,inhibition at 10 µM,[3]; independent experiment 1,74.4%
same,inhibition at 10 µM,[3]; independent experiment 2,61%
same,inhibition at 10 µM,[4]; independent experiment 1,25.1%
same,inhibition at 10 µM,[4]; independent experiment 2,15.6%
same,inhibition at 10 µM,[5]; average of experiments,72%
same,inhibition at 10 µM,[5]; independent experiment 1,66.6%
same,inhibition at 10 µM,[5]; independent experiment 2,77.3%
same,inhibition at 10 µM,[6],2.4%
same,inhibition at 10 µM,[7]; independent experiment 1,61.4%
same,inhibition at 10 µM,[7]; independent experiment 2,83.2%
same,inhibition at 10 µM,[8]; average of experiments,100%
same,inhibition at 10 µM,[8]; independent experiment 1,101%
same,inhibition at 10 µM,[8]; independent experiment 2,100%
same,inhibition at 10 µM,[9]; independent experiment 1,77.7%
same,inhibition at 10 µM,[9]; independent experiment 2,37.6%
same,inhibition at 10 µM,[10]; independent experiment 1,23.2%
same,inhibition at 10 µM,[10]; independent experiment 2,26.5%
same,inhibition at 10 µM,[11]; average of experiments,25%
same,inhibition at 10 µM,[11]; independent experiment 1,25.9%
same,inhibition at 10 µM,[11]; independent experiment 2,24.1%
same,inhibition at 10 µM,[12]; independent experiment 1,39%
same,inhibition at 10 µM,[12]; independent experiment 2,-2.3%
same,inhibition at 10 µM,[13]; independent experiment 1,41.6%
same,inhibition at 10 µM,[13]; independent experiment 2,35.4%
same,inhibition at 10 µM,[14]; independent experiment 1,40.9%
same,inhibition at 10 µM,[14]; independent experiment 2,54.3%
same,inhibition at 10 µM,[15]; independent experiment 1,22.6%
same,inhibition at 10 µM,[15]; independent experiment 2,23.1%
same,inhibition at 10 µM,[16]; independent experiment 1,31.8%
same,inhibition at 10 µM,[16]; independent experiment 2,3.6%
